Test results reported in patent publication US20240358822A1, “ALLERGY TREATMENT” (ENA RESPIRATORY PTY LTD, priority 2021, published 2024).

Key:
Type in all cases: cell-based, human
[1] = test system: PBMC from grass pollen allergic patients; experiment: Expansion of Th2 cell phenotypes on allergen stimulation, Flow Cytometry; settings: in the presence of allergen; 6 days
Procedure: FIG. 3. Treatment with INNA-001 suppresses the expansion of pro-allergic Th2 cell phenotypes in response to allergen stimulation. PBMC from grass pollen allergic patients (N=12) were cultured for 6 days with or without allergen (Phlp at 10 μg/mL) and with or without a range of concentrations of INNA-001. After 6 days, the cells were harvested, washed and activated with phorbol 12-myristate 13-acetate (25 ng/mL) and ionomycin (1 μg/mL) for 5 hours. Brefeldin A (10 μg/mL) was added for the final 4 hours of stimulation. Subsequently the cells were washed and stained for anti-human CD4, CD27, CRTH2, CD49d, CD161, IL-13 and IL-4. Analysis was performed by Flow Cytometry. Proliferation of cells was measured using CellTrace violet. All data shown are mean±SEM. Graphs represent normalised changes from baseline (untreated). Statistical analysis was performed using ANOVA with Dunn's multiple comparisons test for within-group comparisons (*p<0.05, **p<0.01, ***p<0.001 for the +Phlp group).
FIG. 4. […]
PBMC from patients with allergy to Timothy grass pollen (Phleum pratense) were cultured for 6 days in the presence or absence of allergen and INNA-001 or control compounds. Allergen-induced proliferation and cytokine production were assessed and the phenotype of proliferating allergen-stimulated T cells was determined.

[2] = test system: PBMC from grass pollen allergic patients; experiment: CD4+ T regulatory cell induction in PBMC, 6 days, Flow Cytometry / FlowSOM
Procedure: FIG. 14. […] PBMC from grass pollen allergic patients were cultured for 6 days with or without allergen (Phlp at 10 μg/mL) and with or without a range of concentrations of INNA-001 or Pam2CSK4 (0.3, 3 and […]). At day 6 the cells were harvested, washed and stained for anti-human CD4, CD25, CD127 and Foxp3. Analysis was performed by Flow Cytometry. All data shown are mean±SEM. Graphs represent changes from baseline (untreated). Statistical analysis was performed using ANOVA with Dunn's multiple comparisons test for within-group comparisons. Mann-Whitney U test was performed for between-group comparisons. Statistical significance in the +Phlp group: *p<0.05, **p<0.01, ***p<0.001.
FIG. 15. […] PBMC from grass pollen allergic patients were cultured for 6 days with or without allergen (Phlp at 10 μg/mL) and with or without a range of concentrations of INNA-001 or Pam2CSK4 (0.3, 3 and 10 μg/ml). At day 6 the cells were harvested, washed and stained for anti-human CD4, CD25, CD127, Foxp3 and CD45RO. Analysis was performed by Flow Cytometry. All data shown are mean±SEM. Graphs represent changes from baseline (untreated) (A) naive FoxP3^+CD25^+CD127^−CD4^+CD45RO^− cells, and (B) memory FoxP3^+CD25^+CD127^−CD4^+CD45RO^+ cells. Statistical analysis was performed using ANOVA with Dunn's multiple comparisons test for within-group comparisons. Mann-Whitney U test was performed for between-group comparisons. Statistical significance in the +Phlp group: *p<0.05, **p<0.01, ***p<0.001.
FIG. 16. […] PBMC from grass pollen allergic patients (N=3 for INNA=003 & INNA-006, N=7 for INNA-001 & Pam2CSK4) were cultured for 6 days with or without allergen (Phlp at 10 μg/mL) and with or without a range of concentrations of INNA-001, INNA-003, INNA-006 or Pam2CSK4 (0.3, 3 and 10 μg/mL). At day 6 the cells were harvested, washed and stained for anti-human CD4, CD25, CD127, Foxp3 and CD45RO. Analysis was performed by Flow Cytometry. All data shown are mean±SEM.
FIG. 17. […] PBMC from grass pollen allergic patients were cultured for 6 days with allergen (Phlp at 10 μg/mL) and with or without INNA-001 or Pam2CSK4 (3 μg/mL). At 6 days the cells were harvested, washed and stained for anti-human Foxp3, CD4, CD25, CD45RO, CD127, CTLA4 and SABT1. Analysis was performed by Flow Cytometry. The data were further analysed using unbiased FlowSOM technique. Foxp3^+ T regulatory cell metacluster identification following treatment with INNA-001 A) in the presence of Phlp (N=3) or B) absence of Phlp (N=3). C) Heatmap display of the marker expression profile of the identified metaclusters (N=3). D) Quantification of population abundance of the metaclusters 3, 5 and 9 following INNA-001 and Pam2CSK4 treatment in the presence of Phlp (N=3). […]

[3] = test system: PBMC from grass pollen allergic patients; experiment: IL-10 producing monocytes after 24 hours PBMC culture, Flow Cytometry
Procedure: FIG. 12. […] PBMC from grass pollen allergic patients were cultured for 24 hours with or without allergen (Phlp at 10 μg/mL) and with or without a range of concentrations of INNA-001 or Pam2CSK4 (0.3, 3 and 10 μg/mL). At 24 hours the cells were harvested, washed and stained for anti-human CD14, CD16 and IL-10. Analysis was performed by Flow Cytometry. A) Flow Cytometry representative plots (N=3) for percentage of IL-10-producing subpopulation of non-classical (CD14^low CD16^+) monocytes after treatment with […] of TLR2 agonists (INNA-001 or Pam2CSK4) in the presence of Phlp. B) Quantification (N=12) of IL-10 producing non-classical (CD14^low CD16^+) and C) Quantification (N=12) of IL-10 producing classical (CD14^highCD16^−) monocytes. All data shown are mean±SEM. Graphs represent changes from baseline (untreated). Statistical analysis was performed using ANOVA with Dunn's multiple comparisons test for within-group comparisons. Mann-Whitney U test was performed for between-group comparisons. Statistical significance in the +Phlp group: *p<0.05, **p<0.01, ***p<0.001.
FIG. 13. […] PBMC from grass pollen allergic patients (N=3) were cultured for 24 hours with or without allergen (Phlp at 10 μg/mL) and with or without a range of concentrations of INNA-001, INNA-003 or INNA-006 (0.3, 3, 10 and 30 μg/ml). At 24 hours the cells were harvested, washed and stained for anti-human CD14, CD16 and IL-10. Analysis was performed by Flow Cytometry. All data shown are mean±SEM.
To examine it, PBMC from patients with allergy to Timothy grass pollen (Phleum pratense) were cultured with INNA-001 or control TLR2 agonist compounds, in the presence or absence of allergen, for 24 hours. At 24 hours the cells were harvested, washed and stained for IL-10 and the monocyte markers CD16 and CD14, using relevant anti-human antibodies. Analysis of the monocyte populations (classical and non-classical monocytes) was performed by Flow Cytometry. Lymphoid cells were excluded using antibodies against lineage markers CD3, CD4, CD15, CD19, CD56.

[4] = test system: PBMC from cat allergic patients; experiment: IL-10 production by PBMC of cat allergic patients, ELISA; settings: 24 hours, 72 hours, 6 days; cat allergen Feld 1
Procedure: FIG. 11. […] PBMC from cat allergic patients (N=3) were cultured for 24 hours, 72 hours or 6 days, with or without allergen (Feld 1 0.1 or […]), in the presence or absence of a range of INNA-001, INNA-006 or Pam2CSK4 concentrations (0.3, 3, 10 and 30 μg/mL). The culture supernatants were harvested and the levels of IL-10 were measured by Elisa.
(§1) PBMC from patients with allergy to Timothy grass pollen (Phleum pratense) or cat (Fel d 1) were cultured for 24 hours, 72 hours or 6 days, in the presence or absence of allergen and INNA-001, INNA-006 or Pam3CSK4 (a TLR2 agonist known to induce IL-10 production) and the production of IL-10 and IL-6 (used as a control, TLR2-induced cytokine) was measured in the cell culture supernatants.

[5] = test system: PBMC from grass pollen allergic patients; experiment: IL-6 production by PBMC at 24 hours, ELISA
Procedure: (§2) FIG. 9. […] PBMC from grass pollen allergic patients (N=3) were cultured for 24 hours with or without a range of allergen concentrations (Phlp at […]), in the presence or absence of a range of INNA-001, INNA-006 or Pam2CSK4 concentrations (from 0.01 to 10 μg/mL). The culture supernatants were harvested and the levels of IL-10 (A) and IL-6 (B) were measured by ELISA. All data shown are mean±SEM.
as §1

[6] = test system: PBMC from grass pollen allergic patients; experiment: Kinetics of IL-10 production by PBMC, ELISA
Procedure: as §2
FIG. 10. […] PBMC from grass pollen allergic patients (N=3) were cultured for 24 hours, 72 hours or 6 days, with or without allergen (Phlp […]), in the presence or absence of a range of INNA-001, INNA-006 or Pam3CSK4 concentrations (0.3, 3, 10 and 30 μg/mL). The culture supernatants were harvested and the levels of IL-10 were measured by ELISA. All data shown are mean±SEM.
as §1

| Substance | number of proliferating IL-13 producing-Th2 (CD4+CD27-CRTH2+IL-13+) cells [1] | memory FoxP3+CD25+CD127-CD4+CD45RO+ T regulatory cells [2] | naive FoxP3+CD25+CD127-CD4+CD45RO- T regulatory cells [2] | total number of CD4+CD25+CD127- regulatory T cells [2] | expansion of Foxp3+ T regulatory cell metaclusters MC3, MC5 and MC9 (FlowSOM) ([2]; 3 μg/mL) | number of IL-10+ non-classical CD14low/CD16+ monocytes ([3]; 24 hours) | numbers of IL-10+ classical CD14high/CD16- monocytes ([3]; 24 hours) | influence of allergen on IL-10+ classical monocytes ([3]; with versus without allergen) | IL-10 upregulation in PBMC of cat allergic subjects [4] | IL-6 generation at 24 hours [5] | influence of parallel allergen stimulation on IL-6 production ([5]; with versus without allergen) | IL-10 generation at 24 hours ([6]; 24 hours, presence or absence of allergen) | IL-10 levels at 72 hours and 6 days ([6]; 72 hours, 6 days) | influence of parallel allergen stimulation on IL-10 production ([6]; with versus without allergen) |
| --- | --- | --- | --- | --- | --- | --- | --- | --- | --- | --- | --- | --- | --- | --- |
| Pam2CSK4 | also reduced the number of proliferating Th2 (CD4+CD27−CRTH2+IL-13+) cells, but to a lesser degree than INNA-001 | Analogous | Analogous | Analogous results | the same metaclusters were also found prominent | increase, although slightly less pronounced | lower increase | independent of the presence of allergen | – | – | – | – | – | – |
| Pam3CSK4 | – | – | – | – | – | – | – | – | stimulated dose-dependent upregulation of IL-10 | strong IL-6 generation | did not appear to influence | rapid, dose-dependent generation of IL-10 | remained high, but with declining levels | did not appear to considerably influence |
